From patent publication US10954271B2, “Anti-microbial peptides” (priority 2014, dated 2021)
≈ marks a conversion by molar mass, not a printed value. Positions of bridges follow the written chain, without caps; N, C: chain ends. Non-standard residues stand in square brackets, D forms with d. Residues, ends and D or L forms follow the SMILES beside them. d2Nal = N[C@H](Cc1ccc2ccccc2c1)C(=O)O; Nle = CCCC[C@H](N)C(=O)O

Assays:
[1] = tested on: M. smegmatis; assay: M. smegmatis adhesion / anti-biofilm assay, counting crystal violet-positive cells; assay type: cell-based
Excerpt: A second series of cationic-aromatic AMPs was designed, and linked (via the N-terminus) to linear anti-biofilm peptides. This created a hybrid anti-biofilm/AMP (AB01), with a Gram-positive specific C-terminal di-peptide (dVal-dPro). A model Gram positive organism that rapidly forms biofilms (M. smegmatis; Ojha, A. and G. F. Hatfull, The role of iron in Mycobacterium smegmatis biofilm formation: the exochelin siderophore is essential in limiting iron conditions for biofilm formation but not for planktonic growth. Mol Microbiol, 2007. 66(2): p. 468-83) was used to assess the inhibition of adhesion/anti-biofilm activity of AB01 & two control AMPs, using a 2 day old biofilm.
The effect of three AMPs on M. smegmatis adhesion was measured on day 0 (data not shown) & after 2 days of biofilm growth, counting crystal violet-positive cells (FIG. 5; see O'Toole, G. A., Microtiter dish biofilm formation assay. J Vis Exp, 2011(47)). Control bacterial adhesion was designated as 100%, and the effect of an added AMP on the cell count was quantified as a percent of the control. The AMPs included Model 01, an AMP of the (RW)n series, (RW)4: [17]; AM11, a cyclized analog of the (RW)n series c(RW)3; and AB01, a hybrid of a cyclized AMP and a linear anti-biofilm peptide.

[2] = tested on: E. coli
[3] = tested on: B. subtilis; assay: Anti-microbial activity, concentration needed to inhibit 50% of bacterial division (IC50); assay type: cell-based
Description: (§1) Further, a set of the anti-microbial peptides described herein were tested for their anti-microbial activity on both Gram-positive and Gram-negative bacteria. […] Unexpectedly, it was further observed that the C-terminal residues (denoted by bold font) selectively target gram-negative or gram-positive bacteria, as indicated.
(§2) Anti-microbial activity is reported as the concentration needed to inhibit 50% of bacterial division (ICso, a standard used in the AMP field). […] In contrast, Opt 3-5 have a Phe for Pro substitution in the C-terminal di-peptide, which produces relatively specificity for Gram-negative organisms (e.g. E. coli). Melittin is a cationic-hydrophobic AMP that served as anti-microbial positive control. Agglutination, an attribute assisting in the clearance of bacterial cells during infection, was assessed via microscopy, and was present with all five AMPs.

[4] = tested on: E. coli; assay: as above; assay type: cell-based; conditions: for relative specificity Gram-positive versus Gram-negative: from IC50 against E. coli and B. subtilis, Table 1
Description: as §1, §2

[5] = tested on: Gram-positive and Gram-negative bacteria; assay: Membrane disruption and cell agglutination assessed via microscopy; assay type: cell-based
Description: as §1, §2
(§3) (1) Microscopy. Bacteria can be treated with dilutions of AMPs were directly analyzed via microscopy for membrane disruption phenotypes, including cell agglutination, cell lysis, and cell elongation/septum disruption. Cells can be also monitored for septum inhibition and elongation through use of the membrane dye FM5-95 and DAPI. Additionally the cells can be imaged and stained with the Life Technologies LIVE/DEAD® BacLight™ Bacterial Viability Kit For killing kinetics of the anti-microbial peptides.
(2) Agglutination and Protein Aggregation. Using the antimicrobial 96 well assay described above, imaging of the 96 well plate and can provide a method for the determination of the MAC (minimum agglutination concentration) for the bacteria, as described. Torrent et al., PLoS Pathogens 8(11): e1003005 (2012).

[6] = tested on: Gram-positive and Gram-negative bacteria; assay: Non-membrane activity (mode of action: septum inhibition, protein aggregation, cell division); assay type: cell-based
Description: as §1
Core sequences were cyclized to enhance druggability and anti-microbial activity. Multiple cationic residues increased binding to anionic membrane and intracellular structures. […] The C-terminal di-peptides in these AMPs were used for their ability to enhance oral activity in peptides. It was discovered that they also directed relative anti-microbial activity towards either Gram-positive or negative organisms (Table 1 and FIG. 5). These AMPs appear to have multiple mechanisms of action (Table 1), potentially mediated by specific binding to the bacterial membrane, and their intracellular accumulation (data not shown). In essence, these AMPs are a form of combination therapy.
as §3

[7] = orally administered, canines (beagles)
Excerpt: We further conducted a preliminary study in a large animal canine model to assess cardiovascular and hematologic safety and clearance of the peptide TCAM207 (SEQ NO: 209) from plasma over a multiple day dosing. Male and female purpose bred beagles were randomized to treatment and instrumented with Holter 9 lead electrocardiograph (ECG) jackets and non-invasive oscillographic paw blood pressure monitoring (emkaPAC 4G telemetry). ECG and BP signals were sampled at 500 Hz using GLP compliant software (IOX, EMKA). ECG signals were saved continuously and blood pressure determined hourly. Blood samples were taken before and after 14 days of SC or oral drug administration for complete chemistry panel and CBC analysis. Samples were taken 1, 2, 4, 8, 12, and 24 hours after drug administration on days 1 and 5 for assay of plasma IIP to assess PK profile. After a 1-2 week washout, dogs were randomized to the other arm of the study.

[8] = normal beagles (n=4), 5 days of 5× therapeutic dose

CC[C@H](C)[C@H](NC(=O)[C@H](CCCNC(=N)N)NC(=O)[C@H](Cc1ccccc1)NC(C)=O)C(=O)N[C@@H](CCCNC(=N)N)C(=O)N[C@H](C(=O)N[C@@H](CCCNC(=N)N)C(=O)N[C@H](C(=O)N[C@H]1CC(=O)NCCCC[C@@H](C(=O)N[C@@H](C(=O)N2CCC[C@@H]2C(N)=O)C(C)C)NC(=O)[C@H](CCCNC(=N)N)NC(=O)[C@H](Cc2c[nH]c3ccccc23)NC(=O)[C@H](Cc2ccccc2)NC(=O)[C@@H](Cc2ccc3ccccc3c2)NC(=O)[C@H](CCCNC(=N)N)NC(=O)[C@H](CCCNC(=N)N)NC1=O)C(C)C)C(C)C [AB01, Ac-FRIRVRV-c[Asp-RR-dNal(21-FWR-Lys]-dVal-dPro-CONH2] (Ac-FRIRVRVDRR[d2Nal]FWRK[dV][dP]-NH2; lactam 8-15)
concentration that prevented adhesion in a 2 day old biofilm ([1]; 2 day old biofilm): 3 to 5 µM
potency in inhibition of adhesion/anti-biofilm activity relative to Model 01 ([1]; 2 day old biofilm): ~100 fold
concentration that prevented adhesion on day 0 [1]: 1 µM
MIC for E. coli [2]: 25 µM

CC[C@H](C)[C@H](NC(=O)CN)C(=O)NCC(=O)N[C@@H](C)C(=O)N[C@H](C(=O)N[C@@H](CC(C)C)C(=O)N[C@@H](CCCCN)C(=O)N[C@H](C(=O)N[C@@H](CC(C)C)C(=O)N[C@H](C(=O)N[C@H](C(=O)NCC(=O)N[C@@H](CC(C)C)C(=O)N1CCC[C@H]1C(=O)N[C@@H](C)C(=O)N[C@@H](CC(C)C)C(=O)N[C@H](C(=O)N[C@@H](CO)C(=O)N[C@@H](Cc1c[nH]c2ccccc12)C(=O)N[C@H](C(=O)N[C@@H](CCCCN)C(=O)N[C@@H](CCCNC(=N)N)C(=O)N[C@@H](CCCCN)C(=O)N[C@@H](CCCNC(=N)N)C(=O)N[C@@H](CCC(N)=O)C(=O)N[C@@H](CCC(N)=O)C(N)=O)[C@@H](C)CC)[C@@H](C)CC)[C@@H](C)O)[C@@H](C)O)C(C)C)C(C)C [Melittin, reference compound]
IC50 B. subtilis [3]: 20.8 µg/mL (≈ 7.31 µM)
IC50, E. coli; μg/mL ([4]; concentration needed to inhibit 50% of bacterial division): 0.7 µg/mL (≈ 0.246 µM)
Membrane Disruption? [5]: Yes
Non-Membrane Activity? [6]: None observed

CCCC[C@H](NC(C)=O)C(=O)N[C@H]1CC(=O)NCCCC[C@@H](C(=O)N[C@@H](C(=O)N2CCC[C@@H]2C(N)=O)C(C)C)NC(=O)[C@@H](Cc2ccc3ccccc3c2)NC(=O)[C@H](CCCNC(=N)N)NC(=O)[C@@H](Cc2ccc3ccccc3c2)NC(=O)[C@@H]2CCCN2C(=O)[C@H](CCCNC(=N)N)NC1=O [Opt 1] (Ac-[Nle]DRP[d2Nal]R[d2Nal]K[dV][dP]-NH2; lactam 2-8)
relative specificity Gram-positive versus Gram-negative [4]: relatively specific for B. subtilis
Membrane Disruption? [5]: Yes, and Agglutination

CCCC[C@H](NC(C)=O)C(=O)N[C@H]1CC(=O)NCCCC[C@@H](C(=O)N[C@@H](C(=O)N2CCC[C@@H]2C(N)=O)C(C)C)NC(=O)[C@H](CCCNC(=N)N)NC(=O)[C@@H](Cc2ccc3ccccc3c2)NC(=O)[C@H](CCCNC(=N)N)NC(=O)[C@@H](Cc2ccc3ccccc3c2)NC(=O)[C@@H]2CCCN2C(=O)[C@H](CCCNC(=N)N)NC1=O [Opt 2] (Ac-[Nle]DRP[d2Nal]R[d2Nal]RK[dV][dP]-NH2; lactam 2-9)
relative specificity Gram-positive versus Gram-negative [4]: relatively specific for B. subtilis
Membrane Disruption? [5]: Yes, and Agglutination

CCCC[C@H](NC(C)=O)C(=O)N[C@H]1CC(=O)NCCCC[C@@H](C(=O)N[C@H](Cc2ccccc2)C(=O)N[C@@H](C(N)=O)C(C)C)NC(=O)[C@H](Cc2c[nH]c3ccccc23)NC(=O)[C@H](CCCNC(=N)N)NC(=O)[C@@H](Cc2ccc3ccccc3c2)NC(=O)[C@@H]2CCCN2C(=O)[C@H](CCCNC(=N)N)NC1=O [Opt 3] (Ac-[Nle]DRP[d2Nal]RWK[dF][dV]-NH2; lactam 2-8)
Membrane Disruption? [5]: Yes, and Agglutination
Non-Membrane Activity? [6]: None observed

CCCC[C@H](NC(C)=O)C(=O)N[C@H]1CC(=O)NCCCC[C@@H](C(=O)N[C@@H](Cc2ccccc2)C(=O)N[C@H](C(N)=O)C(C)C)NC(=O)[C@H](Cc2c[nH]c3ccccc23)NC(=O)[C@H](CCCNC(=N)N)NC(=O)[C@@H](Cc2ccc3ccccc3c2)NC(=O)[C@@H]2CCCN2C(=O)[C@H](CCCNC(=N)N)NC1=O [Opt 4] (Ac-[Nle]DRP[d2Nal]RWKFV-NH2; lactam 2-8)
Membrane Disruption? [5]: Yes, and Agglutination

CCCC[C@H](NC(C)=O)C(=O)N[C@H]1CC(=O)NCCCC[C@@H](C(=O)N[C@H](C(=O)N[C@@H](Cc2ccccc2)C(N)=O)C(C)C)NC(=O)[C@H](Cc2c[nH]c3ccccc23)NC(=O)[C@H](CCCNC(=N)N)NC(=O)[C@@H](Cc2ccc3ccccc3c2)NC(=O)[C@@H]2CCCN2C(=O)[C@H](CCCNC(=N)N)NC1=O [Opt 5] (Ac-[Nle]DRP[d2Nal]RWKVF-NH2; lactam 2-8)
Membrane Disruption? [5]: Yes, and Agglutination
Non-Membrane Activity? [6]: Altered cell

(RW)4 [Model-01, reference compound]
concentration that prevented adhesion in a 2 day old biofilm ([1]; 2 day old biofilm): ≥ 100 µM
concentration that prevented adhesion on day 0 [1]: 10 µM

Ac-[Nle]DP[d2Nal]RWK[dV][dP]-NH2 (lactam 2-7) [TCAM207]
time the peptide was stable and remained in the plasma [7]: up to 24 hrs
RBC casts [8]: no RBC casts were noted
change in red blood cell (RBC) count, hemoglobin (Hg), and hematocrit (Hct) [8]: slight (statistically insignificant) decreases in all parameters
